Read-outs that look alike come from different tables or passages of the source.
Assays:
[1] = test system: A431 cells
Description: (§1) The experimental procedures were as follows: The cells were subcultured in a complete medium containing 10% FBS in an incubator at 37 °C with 5% CO2 and saturated humidity. The cell density was adjusted to (3-5) × 10^4 cells/mL using a complete medium containing 10% FBS. The cell suspension was added to the wells of a 96-well culture plate at 100 µL/well, and the plate was incubated in an incubator at 37 °C with 5% CO2 and saturated humidity overnight (for about 16-24 hrs). Various dose groups of the test substance and a solvent control group were set. On the next day, the original culture medium was discarded. Subsequently, 20% FBS-containing complete medium was added at 100 µL/well, and the test substance or solvent in FBS-free medium was then added at 100 µL/well, resulting in a final FBS concentration of 10%. Meanwhile, a negative control group was set: each well received 100 µL of 20% FBS-containing complete medium + 100 µL of incomplete medium containing cells, resulting in a final FBS concentration of 10%. A zero adjustment group (background) was also set: 200 µL of the culture medium alone (100 µL of 20% FBS-containing complete medium + 100 µL of incomplete medium), without drugs and cells. For each concentration group, four replicate wells were set.
(§2) After incubation for 48 hrs under the experimental conditions, the supernatant was discarded, and 110 µL of CCK-8 working solution (100 µL of 10% FBS-containing complete medium and 10 µL of CCK-8 solution) were added to each well. The cells were further incubated for 4 hrs, and the optical density value at a wavelength of 450 nm (A450) was then measured for each well using a microplate reader. The average value for the wells of each treatment group (T) was compared with the average value for the negative control wells (C). The percent inhibition rate of each concentration group was calculated using the following formula: [Inhibition rate = (1 - T/C) × 100%], and the half-maximal inhibitory concentration (IC50) was calculated.

[2] = test system: COLO-16 cells
Description: as §1, §2

[3] = test system: SCL-1 cells
Description: as §1, §2

[4] = test system: TE.354.T cells (human cutaneous basal cell carcinoma)
Description: The experimental procedures were as follows: The cells were subcultured in a complete medium containing 10% FBS in an incubator at 37 °C with 5% CO2 and saturated humidity. The cell density was adjusted to (3-5) × 10^4 cells/mL using a complete medium containing 10% FBS. The cell suspension was added to the wells of a 96-well culture plate at 100 µL/well, and the plate was incubated in an incubator at 37 °C with 5% CO2 and saturated humidity overnight (for about 16-24 hrs). Various dose groups of the test substance and a solvent control group were set. On the next day, the original culture medium was discarded. Subsequently, 20% FBS-containing complete medium was added at 100 µL/well, and the test substance or solvent in FBS-free medium was then added at 100 µL/well, resulting in a final FBS concentration of 10%. Meanwhile, a negative control group was set: each well received 100 µL of 20% FBS-containing complete medium + 100 µL of incomplete medium containing cells, resulting in a final FBS concentration of 10%. A zero adjustment group (background) was also set: 200 µL of the culture medium alone (100 µL of 20% FBS-containing complete medium + 100 µL of incomplete medium), without drugs and cells. For each concentration group, four replicate wells were set. […]

[5] = test system: SCL-1 cells; conditions: SCL-1 tumor-bearing nude mice, 21 days
Description: (§3) Quarantine-qualified male BALB/c-nu nude mice weighing 13.4-20.5 g were each inoculated with 0.2 mL of SCL-1 cells in logarithmic growth phase at 3 x 10^6 cells/mL (with Matrigel and cell suspension mixed in a ratio of 1:2) in the right axilla. […] The drug was kept in contact with the skin for 4 hrs per administration, and the treatment was given to each group for three consecutive weeks. During the treatment period, the long diameter (a) and short diameter (b) of the tumors were measured using a vernier caliper every 3 days. Then, the tumor volume (TV), relative tumor volume (RTV), and relative tumor proliferation rate (T/C, %) were calculated. After the final administration, the tumor tissues were dissected out and weighed to calculate the tumor growth inhibition rates.

[6] = test system: COLO-16 cells; conditions: COLO-16 tumor-bearing nude mice, 21 days
Description: as §3, with “weighing 13.7-21.1” for “weighing 13.4-20.5”, “of COLO-16” for “of SCL-1”, “at 6.7” for “at 3”, “cells/mL” for “cells/mL (with Matrigel and cell suspension mixed in a ratio of 1:2)”

[7] = 20 °C
[8] = for Labeled amount (%) / Related substances (%) Impurity A / Related substances (%) Impurity B / Related substances (%) Impurity C / Related substances (%) Impurity D / Related substances (%) Impurity E / Related substances (%) Impurity F / Related substances (%) RRT0.73 / Related substances (%) RRT1.10 / Related substances (%) RRT2.18 / Related substances (%) Total impurities: mixed with CMC-Na 1:5
[9] = topical gel; for plasma drug concentrations above the LLOQ: 0.008-0.06 mg/cm^2, LLOQ 0.02 ng/mL
[10] = test system: human liver cancer HepG2 cells; conditions: documented in CN 104736157 A; cited from earlier work
[11] = High humidity for 10 days (RH 90%±5%)
[12] = High temperature for 10 days (60 °C±2 °C)

CO[C@H]1[C@H](O)[C@H](O[C@H]2CC[C@@]3(C)[C@H](CC[C@@H]4[C@@H]3CC[C@]3(C)[C@@H](C5=CC(=O)OC5)CC[C@]43O)C2)O[C@@H](C)[C@@H]1O [17β-neriifolin]
growth inhibitory effects [1]: strong growth inhibitory effects | growth inhibitory effects [2]: strong growth inhibitory effects | growth inhibitory effects [3]: strong growth inhibitory effects | growth inhibitory effects [4]: strong growth inhibitory effects | anti-tumor effect compared with Imiquimod cream (50 mg/g) [5]: significantly superior to that of Imiquimod cream | anti-tumor effect compared with Imiquimod cream (50 mg/g) [6]: significantly superior to that of Imiquimod cream | Dissolution behavior ([7]; Ethanol concentration 20 %, sample concentration 8 mg/g): dissolved | Dissolution behavior ([7]; Ethanol concentration 20 %, sample concentration 8 mg/g, listed as 17β-Neriifolin): Dissolved | Dissolution behavior ([7]; Ethanol concentration 45 %, sample concentration 20 mg/g): dissolved | Dissolution behavior ([7]; Ethanol concentration 45 %, sample concentration 20 mg/g, listed as 17β-Neriifolin): Dissolved | Dissolution behavior ([7]; Ethanol concentration 50 %, sample concentration 24 mg/g): Dissolved | Dissolution behavior ([7]; Ethanol concentration 66 %, sample concentration 32 mg/g): Dissolved | Dissolution behavior ([7]; Ethanol concentration 75 %, sample concentration 40 mg/g): Dissolved | Dissolution behavior ([7]; Ethanol concentration 100 %, sample concentration 50 mg/g): Dissolved | impact of high temperature, high humidity, and illumination on the related substances and drug content ([8]; combined with sodium carboxymethyl cellulose 1:5, 10 days): no impact | stability of the combination with sodium carboxymethyl cellulose compared with the combination with Carbomer ([8]; mass ratio 1:5, 10 days, high temperature, high humidity, illumination): significantly superior | Labeled amount (%) ([8]; 0 days): 99.56% | Related substances (%) Impurity A ([8]; 0 days): 0.17% | Related substances (%) Impurity B ([8]; 0 days): 0.36% | Related substances (%) Impurity C ([8]; 0 days): 0.25% | Related substances (%) Impurity D ([8]; 0 days): 0.13% | Related substances (%) Impurity E ([8]; 0 days): 0.15% | Related substances (%) Impurity F ([8]; 0 days): 0.14% | Related substances (%) RRT0.73 ([8]; 0 days): 0.05% | Related substances (%) RRT1.10 ([8]; 0 days): 0.04% | Related substances (%) RRT2.18 ([8]; 0 days): 0.03% | Related substances (%) Total impurities ([8]; 0 days): 1.32% | Labeled amount (%) [8, 11]: 99.42% | Related substances (%) Impurity A [8, 11]: 0.17% | Related substances (%) Impurity B [8, 11]: 0.36% | Related substances (%) Impurity C [8, 11]: 0.25% | Related substances (%) Impurity D [8, 11]: 0.13% | Related substances (%) Impurity E [8, 11]: 0.15% | Related substances (%) Impurity F [8, 11]: 0.14% | Related substances (%) RRT0.73 [8, 11]: 0.05% | Related substances (%) RRT1.10 [8, 11]: 0.04% | Related substances (%) RRT2.18 [8, 11]: 0.03% | Related substances (%) Total impurities [8, 11]: 1.32% | Labeled amount (%) [8, 12]: 100.95% | Related substances (%) Impurity A [8, 12]: 0.17% | Related substances (%) Impurity B [8, 12]: 0.36% | Related substances (%) Impurity C [8, 12]: 0.25% | Related substances (%) Impurity D [8, 12]: 0.13% | Related substances (%) Impurity E [8, 12]: 0.15% | Related substances (%) Impurity F [8, 12]: 0.14% | Related substances (%) RRT0.73 [8, 12]: 0.05% | Related substances (%) RRT1.10 [8, 12]: 0.04% | Related substances (%) RRT2.18 [8, 12]: 0.03% | Related substances (%) Total impurities [8, 12]: 1.32% | Labeled amount (%) ([8]; Strong light for 10 days): 99.96% | Related substances (%) Impurity A ([8]; Strong light for 10 days): 0.17% | Related substances (%) Impurity B ([8]; Strong light for 10 days): 0.36% | Related substances (%) Impurity C ([8]; Strong light for 10 days): 0.25% | Related substances (%) Impurity D ([8]; Strong light for 10 days): 0.13% | Related substances (%) Impurity E ([8]; Strong light for 10 days): 0.15% | Related substances (%) Impurity F ([8]; Strong light for 10 days): 0.14% | Related substances (%) RRT0.73 ([8]; Strong light for 10 days): 0.05% | Related substances (%) RRT1.10 ([8]; Strong light for 10 days): 0.04% | Related substances (%) RRT2.18 ([8]; Strong light for 10 days): 0.03% | Related substances (%) Total impurities ([8]; Strong light for 10 days): 1.32% | plasma drug concentrations above the LLOQ ([9]; four Australian subjects): 0.021 to 0.101 ng/mL | plasma drug concentrations above the LLOQ ([9]; seven Chinese subjects): 0.022 to 0.106 ng/mL | dose dependence of systemic exposure ([9]; 0.008-0.06 mg/cm^2 dose range): No dose-dependent increase | cell cycle arrest and apoptosis [10]: induce cell cycle arrest and apoptosis

Source: patent EP4792818A1, “COMPOUND SUITABLE FOR EXTERNAL USE, AND PHARMACEUTICAL COMPOSITION” (EnKang Pharmaceuticals (Guangzhou), Ltd., priority 2023, dated 2025)
